Test: Binding affinity for delta opioid receptor was determined using radioligand [3H]DPDPE in Guinea pig brain membranes.

CCCCC(=N)NCc1ccc2[nH]c3c(c2c1)C[C@@]1(O)C2Cc4ccc(O)c5c4[C@@]1(CCN2CC1CC1)C3O5 (stereo partly drawn) [22-cyclopropylmethyl-7-(1-iminopentylaminomethyl)-(2S)-14-oxa-11,22-diazaheptacyclo[13.9.1.01,13.02,21.04,12.05,10.019,25]pentacosa-4(12),5(10),6,8,15,17,19(25)-heptaene-2,16-diol] showed a Ki of 5.5 nM.

Reference: BindingDB's records for doi:10.1021/jm00053a025 (University of Minnesota, 1993)
